The values below come from patent US10131670B2, “Bicyclic heteroaryl derivatives as CFTR potentiators” (CYSTIC FIBROSIS FOUNDATION THERAPEUTICS, INC., priority 2016, dated 2018).

In one test the target is CFTR (Homo sapiens, UniProt P13569). Nature of the test: Ussing Chamber Electrophysiology Assay of CFTR Potentiation in CF Bronchial Epithelial Cells. The class given is cell-based. The conditions noted are these: primary CF hBE cells, short-circuit current, scaled to DMSO (0%) and positive control potentiator (100%). The text has this:
Ussing Chamber Electrophysiology Assay of CFTR Potentiation in CF Bronchial Epithelial Cells
Primary cystic fibrosis human bronchial epithelial (CF hBE) cells were expanded and cultured according to published methods (Neuberger et al., Ch. 4 of Cystic Fibrosis, Methods in Molecular Biology vol. 741, pp. 39-54 (2011)). Well-differentiated cells (>30 days at air/liquid interface) on Snapwell filters (Corning Costar, cat. no. 3801) were mounted in Ussing chambers (Physiologic Instruments, Inc., San Diego, Calif.). F508del/F508del cultures were assayed at 27° C. and G551D/F508del cells were assayed at 35° C. HEPES buffered physiological saline (composition (in mM): 137 NaCl, 4 KCl, 1 MgCl2, 1.8 CaCl2, 10 HEPES Na) was used in both apical and basolateral chambers. Chambers were bubbled with air to promote mixing and the voltage was clamped to zero. Amiloride (30 uM), forskolin (10 uM), test compound (4 increasing concentrations), and CFTRinh-172 (20 uM) were added sequentially with 20-25 minutes between additions. Short-circuit currents were acquired and analyzed using LabScribe2. Test compound responses were scaled relative to responses for DMSO (0%) and the maximal response of a positive control potentiator (100%).

Another test concerns the target F508del V470 CFTR (Homo sapiens, UniProt P13569, DEL508-508). Nature of the test: FRT Ion Flux Assay of F508del CFTR Potentiation. Particulars: FRT cells expressing F508del V470 CFTR and halide-sensitive YFP, forskolin 20 uM, 30 min. The class given is cell-based. The protocol:
FRT Ion Flux Assay of F508del CFTR Potentiation
Fischer rat thyroid (FRT) cell lines stably expressing recombinant F508del V470 CFTR and halide-sensitive yellow fluorescent protein (Pedemonte et al., J. Clin. Invest. 115(9) 2564-71 (2005)) were seeded at 25,000 cells/well in 50 uL/well of culture medium into black-walled, clear bottom tissue-culture-treated 384-well plates (Corning, cat. no. 3712). After one day, the cells were pre-incubated at 27° C./5% CO2 for 16-24 hours. The cells were then washed with dPBS and treated with forskolin (20 uM) and test compound for 30 min by addition of 20 uL of compound dilution buffer (dPBS containing forskolin and test compound). Plates were loaded into FLIPR384 fluorescence imaging plate reader (Molecular Devices). After an initial fluorescence reading, iodide buffer (25 uL) (composition (in mM): 137 NaI, 1.5 K2PO4, 8.1 NaH2PO4, 2.7 KCl, 0.5 MgCl2, 1 CaCl2) was added and a second fluorescence reading was made after approximately 21 seconds. Data treatment involved division of the second fluorescence reading by the initial fluorescence reading, then scaling of the resulting normalized endpoint fluorescence with respect to the responses for DMSO (0%) and a positive control potentiator (100%).

F508del V470 CFTR, sequence (P13569 with tags, fused parts or gaps DEL508-508): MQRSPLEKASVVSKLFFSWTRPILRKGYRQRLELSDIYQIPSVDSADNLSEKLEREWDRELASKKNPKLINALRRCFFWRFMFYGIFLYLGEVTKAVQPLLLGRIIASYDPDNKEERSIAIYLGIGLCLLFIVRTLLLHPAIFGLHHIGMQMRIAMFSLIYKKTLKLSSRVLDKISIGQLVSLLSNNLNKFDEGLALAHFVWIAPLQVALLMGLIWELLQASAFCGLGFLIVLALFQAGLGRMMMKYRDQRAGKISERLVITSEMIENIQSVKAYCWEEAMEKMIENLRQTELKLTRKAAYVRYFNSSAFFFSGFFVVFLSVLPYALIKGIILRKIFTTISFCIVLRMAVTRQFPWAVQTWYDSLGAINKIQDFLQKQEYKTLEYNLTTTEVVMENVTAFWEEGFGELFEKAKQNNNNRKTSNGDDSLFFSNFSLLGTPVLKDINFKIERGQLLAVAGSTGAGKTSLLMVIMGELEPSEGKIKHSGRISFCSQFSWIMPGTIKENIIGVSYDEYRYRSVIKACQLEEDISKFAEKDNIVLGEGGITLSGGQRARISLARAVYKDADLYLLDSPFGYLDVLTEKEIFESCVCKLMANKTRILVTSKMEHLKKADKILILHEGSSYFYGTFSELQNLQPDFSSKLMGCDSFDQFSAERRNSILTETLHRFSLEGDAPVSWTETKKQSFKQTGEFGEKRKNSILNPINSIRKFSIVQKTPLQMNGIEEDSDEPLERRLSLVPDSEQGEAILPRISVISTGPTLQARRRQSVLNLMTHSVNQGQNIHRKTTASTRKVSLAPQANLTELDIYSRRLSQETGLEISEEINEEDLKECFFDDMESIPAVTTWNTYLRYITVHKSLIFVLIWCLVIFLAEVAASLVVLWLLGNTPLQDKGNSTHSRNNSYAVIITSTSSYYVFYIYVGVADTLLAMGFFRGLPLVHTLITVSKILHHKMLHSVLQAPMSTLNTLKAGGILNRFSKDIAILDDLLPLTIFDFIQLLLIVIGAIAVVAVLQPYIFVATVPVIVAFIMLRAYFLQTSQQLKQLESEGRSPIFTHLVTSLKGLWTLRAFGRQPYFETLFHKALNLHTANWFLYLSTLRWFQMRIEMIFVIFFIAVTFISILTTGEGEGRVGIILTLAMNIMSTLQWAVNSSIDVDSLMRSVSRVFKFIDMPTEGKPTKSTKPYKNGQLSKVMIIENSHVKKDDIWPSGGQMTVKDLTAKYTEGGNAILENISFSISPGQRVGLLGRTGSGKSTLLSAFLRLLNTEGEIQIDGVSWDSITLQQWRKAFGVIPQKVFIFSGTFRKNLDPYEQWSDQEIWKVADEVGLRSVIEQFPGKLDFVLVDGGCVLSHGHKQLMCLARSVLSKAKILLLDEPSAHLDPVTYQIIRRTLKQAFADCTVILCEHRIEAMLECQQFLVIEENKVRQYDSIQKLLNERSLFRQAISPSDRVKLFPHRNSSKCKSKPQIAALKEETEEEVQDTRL

`CC(c1cnn(-c2ccc(F)cc2F)c1)c1c(C#N)c(-c2cnc(C(F)(F)F)nc2)c2c(N)ncnn12` (single isomer, unassigned) [Example 20, 4-amino-7-{1-[1-(2,4-difluorophenyl)-1H-pyrazol-4-yl]ethyl}-5-[2-(trifluoromethyl)pyrimidin-5-yl]pyrrolo[2,1-f][1,2,4]triazine-6-carbonitrile]: the results for the EC50 on CFTR and at F508del V470 CFTR were 8.94 nM and 30 nM, respectively.

As for `CCC(c1cn(-c2ccccc2F)nn1)n1nc(-c2cnc(C(F)(F)F)nc2)c2c(N)ncnc21` (single isomer, unassigned) [Example 90, 1-{1-[1-(2-fluorophenyl)-1H-1,2,3-triazol-4-yl]propyl}-3-[2-(trifluoromethyl)pyrimidin-5-yl]-1H-pyrazolo[3,4-d]pyrimidin-4-amine], the EC50 turned out to be 31.5 nM at CFTR and 31.8 nM at F508del V470 CFTR. Take `CC(c1cnn(-c2ccccc2F)c1)c1c(C#N)c(-c2cnc(C(F)(F)F)nc2)c2c(N)ncnn12` (single isomer, unassigned) [Example 13, 4-amino-7-{1-[1-(2-fluorophenyl)-1H-pyrazol-4-yl]ethyl}-5-[2-(trifluoromethyl)pyrimidin-5-yl]pyrrolo[2,1-f][1,2,4]triazine-6-carbonitrile]: the EC50 at CFTR was determined as 0.42 nM; at F508del V470 CFTR, 0.62 nM. `N#Cc1c(-c2cnc(C(F)(F)F)nc2)c2c(N)ncnn2c1Cc1cc(-c2ccccc2F)no1` [Example 35, 4-amino-7-{[3-(2-fluorophenyl)-1,2-oxazol-5-yl]methyl}-5-[2-(trifluoromethyl)pyrimidin-5-yl]pyrrolo[2,1-f][1,2,4]triazine-6-carbonitrile]: the results for the EC50 on CFTR and on F508del V470 CFTR were 4 nM and 4.65 nM, respectively. In the case of `CCC(c1cnn(-c2ccc(F)cc2F)c1)c1c(C#N)c(-c2cnc(C(F)(F)F)nc2)c2c(N)ncnn12` (single isomer, unassigned) [Example 16, 4-amino-7-{1-[1-(2,4-difluorophenyl)-1H-pyrazol-4-yl]propyl}-5-[2-(trifluoromethyl)pyrimidin-5-yl]pyrrolo[2,1-f][1,2,4]thazine-6-carbonitrile], the EC50 at CFTR was determined as 0.42 nM; on F508del V470 CFTR it was 0.56 nM. Turning to `CCC(c1cn(-c2ccccc2F)nn1)c1cc(-c2cncnc2OC)c2c(N)ncnn12` (single isomer, unassigned) [Example 65, 7-{1-[1-(2-fluorophenyl)-1H-1,2,3-triazol-4-yl]propyl}-5-(4-methoxypyrimidin-5-yl)pyrrolo[2,1-f][1,2,4]triazin-4-amine], the EC50 at CFTR is 10.4 nM; at F508del V470 CFTR, 14 nM. With `CCC(c1cn(-c2ccc(F)cc2F)nn1)c1cc(-c2cnc(C(F)(F)F)nc2)c2c(N)ncnn12` (single isomer, unassigned) [Example 59, 7-{1-[1-(2,4-difluorophenyl)-1H-1,2,3-triazol-4-yl]propyl}-5-[2-(trifluoromethyl)pyrimidin-5-yl]pyrrolo[2,1-f][1,2,4]triazin-4-amine], the EC50 at CFTR is 115 nM; on F508del V470 CFTR, 249 nM. `N#Cc1c(-c2cnc(C(F)(F)F)nc2)c2c(N)ncnn2c1Cc1cnn(-c2ccccc2F)c1` [Example 30, 4-amino-7-{[1-(2-fluorophenyl)-1H-pyrazol-4-yl]methyl}-5-[2-(trifluoromethyl)pyrimidin-5-yl]pyrrolo[2,1-f][1,2,4]triazine-6-carbonitrile]: the figures for the EC50 at CFTR and at F508del V470 CFTR were 0.86 nM and 0.57 nM, respectively.

As to `CCC(c1cn(-c2ccccc2F)nn1)c1c(C#N)c(-c2cnc(C(F)(F)F)nc2)c2c(N)ncnn12` (single isomer, unassigned) [Example 4, 4-amino-7-{1-[1-(2-fluorophenyl)-1H-1,2,3-triazol-4-yl]propyl}-5-[2-(trifluoromethyl)pyrimidin-5-yl]pyrrolo[2,1-f][1,2,4]triazine-6-carbonitrile], the EC50 came out at 20.5 nM at CFTR and 35.8 nM on F508del V470 CFTR. The corresponding values for `CCC(c1cn(-c2ccc(F)c(F)c2)nn1)c1c(C#N)c(-c2cnc(C(F)(F)F)nc2)c2c(N)ncnn12` (single isomer, unassigned) [Example 9, 4-amino-7-{1-[1-(3,4-difluorophenyl)-1H-1,2,3-triazol-4-yl]propyl}-5-[2-(trifluoromethyl)pyrimidin-5-yl]pyrrolo[2,1-f][1,2,4]triazine-6-carbonitrile] are 28.4 nM and 41.2 nM. Consider `N#Cc1c(-c2cnc(C(F)F)nc2)c2c(N)ncnn2c1Cc1cnn(-c2ccccc2F)c1` [Example 31, 4-amino-5-[2-(difluoromethyl)pyrimidin-5-yl]-7-{[1-(2-fluorophenyl)-1H-pyrazol-4-yl]methyl}pyrrolo[2,1-f][1,2,4]triazine-6-carbonitrile], for which the EC50 at CFTR was 1.05 nM; on F508del V470 CFTR it was 0.41 nM. For `CCC(c1cn(-c2ccc(F)cc2F)nn1)n1nc(-c2cnc(C(F)(F)F)nc2)c2c(N)ncnc21` (single isomer, unassigned) [Example 99, 1-{1-[1-(2,4-difluorophenyl)-1H-1,2,3-triazol-4-yl]propyl}-3-[2-(trifluoromethyl)pyrimidin-5-yl]-1H-pyrazolo[3,4-d]pyrimidin-4-amine] the same measures were 29.2 nM and 37.2 nM.

With `CC(O)(c1cn(-c2ccccc2F)nn1)c1cc(-c2cnc(C(F)(F)F)nc2)c2c(N)ncnn12` (single isomer, unassigned) [Example 68, 1-{4-amino-5-[2-(trifluoromethyl)pyrimidin-5-yl]pyrrolo[2,1-f][1,2,4]triazin-7-yl}-1-[1-(2-fluorophenyl)-1H-1,2,3-triazol-4-yl]ethanol], on F508del V470 CFTR, the 50% effective concentration (EC50) was 2310 nM. Regarding `CCC(c1cn(-c2ccccc2F)nn1)c1c(C#N)c(-c2cnc(C(F)(F)F)nc2)c2c(N)ncnn12` (single isomer, unassigned) [Example 5, 4-amino-7-{1-[1-(2-fluorophenyl)-1H-1,2,3-triazol-4-yl]propyl}-5-[2-(trifluoromethyl)pyrimidin-5-yl]pyrrolo[2,1-f][1,2,4]triazine-6-carbonitrile], the EC50 came to 3.02 nM on CFTR and 2.13 nM on F508del V470 CFTR. The corresponding values for `CCC(c1cn(-c2ccc(F)cc2F)nn1)c1c(C#N)c(-c2cnc(C(F)(F)F)nc2)c2c(N)ncnn12` (single isomer, unassigned) [Example 7, 4-amino-7-{1-[1-(2,4-difluorophenyl)-1H-1,2,3-triazol-4-yl]propyl}-5-[2-(trifluoromethyl)pyrimidin-5-yl]pyrrolo[2,1-f][1,2,4]triazine-6-carbonitrile] are 33.5 nM and 45.2 nM. Regarding `CC(c1cnn(-c2ccc(F)cc2F)c1)c1c(C#N)c(-c2cnc(C(F)(F)F)nc2)c2c(N)ncnn12` (single isomer, unassigned) [Example 21], the EC50 on CFTR came out at 0.66 nM; at F508del V470 CFTR, 3.13 nM. Regarding `CC(c1cnn(-c2ccccc2F)c1)c1c(C#N)c(-c2cnc(C(F)F)nc2)c2c(N)ncnn12` (single isomer, unassigned) [Example 96, 4-amino-5-[2-(difluoromethyl)pyrimidin-5-yl]-7-{1-[1-(2-fluorophenyl)-1H-pyrazol-4-yl]ethyl}pyrrolo[2,1-f][1,2,4]triazine-6-carbonitrile], the EC50 at CFTR came to 0.4 nM. In the case of `CCC(c1cn(-c2ccccc2)nn1)n1nc(-c2cnc(C(F)(F)F)nc2)c2c(N)ncnc21` (single isomer, unassigned) [Example 95, 1-[1-(1-phenyl-1H-1,2,3-triazol-4-yl)propyl]-3-[2-(trifluoromethyl)pyrimidin-5-yl]-1H-pyrazolo[3,4-d]pyrimidin-4-amine], the results for the EC50 on CFTR and on F508del V470 CFTR were 188 nM and 349 nM, respectively. With `CCC(c1cn(-c2ccccc2F)nn1)c1c(C#N)c(-c2cnc(C(F)(F)F)nc2)c2c(N)ncnn12` (stereo not drawn) [Example 25, 4-amino-7-{1-[1-(2-fluorophenyl)-1H-1,2,3-triazol-4-yl]propyl}-5-[2-(trifluoromethyl)pyrimidin-5-yl]pyrrolo[2,1-f][1,2,4]triazine-6-carbonitrile], on CFTR, the EC50 was 7.86 nM. In the case of `CC(c1cnn(-c2ccccc2F)c1)c1c(C#N)c(-c2cnc(C(F)F)nc2)c2c(N)ncnn12` (single isomer, unassigned) [Example 97, 4-amino-5-[2-(difluoromethyl)pyrimidin-5-yl]-7-{1-[1-(2-fluorophenyl)-1H-pyrazol-4-yl]ethyl}pyrrolo[2,1-f][1,2,4]triazine-6-carbonitrile], the EC50 at CFTR stood at 3.87 nM.
